{"source": "patent US20050014751A1", "about": "“Use of n-acyl homoserine lactones for the treatment of insulitis” (priority 2001, published 2005)", "key": {"insulitis in NOD mice": {"test_system": "insulitis in NOD mice", "experiment": "Effect of OdDHL on insulitis in NOD mice (slide score)", "assay_type": "in vivo", "settings": "3 times a week for four weeks", "procedure": "To investigate the effect of OdDHL on insulitis or type I diabetes mellitus, mice (NOD) with a genetic predisposition to develop IDDM (insulin dependent diabetes mellitus) were treated with OdDHL. The animals were dosed at […] intraperitoneally from 4 weeks of age, 3 times a week for four weeks. Insulitis was assessed at 14 weeks. In the table a score of 3 or more (DMSO and PBS) represents severe grade insulitis and 1.3 (OdDHL) represents little infiltration (a score of 1 would represent low grade peri-insulitis). The mice were scored according to the method of Beales et al (European Journal of Pharmacology 357(1998) 221-225)."}, "[1]": {"test_system": "delayed type hypersensitivity response to SRBCs in Balb/c mice", "experiment": "Murine in vivo DTH response to SRBCs (footweight), oral OdDHL", "settings": "Balb/c mice immunised with 5×10^6 SRBCs", "procedure": "Eight week old, female Balb/c mice were kept on a 12 hour light/dark cycle and fed food and water ad libitum. SRBCs in Alseviers solution (TCS Biologicals, SB069) were washed and centrifuged (800×g for 20 minutes at room temperature) three times with 0.9% NaCl in distilled water. Cells were counted using a haemocytometer. On day 0 animals were immunised intraperitoneally (IP) with 5×10^6 (low dose) or 5×10^8 (high dose) SRBCs in saline. On day 5, animals were challenged with 20 μl SRBCs at 5×10^9/ml in the left hind paw. The contralateral paw was injected with 20 μl saline alone. After 24 hours the animals were sacrificed with a rising concentration of CO2 and bled by cardiac puncture. The hind feet were severed at the ankle joint and weighed.\nAnimals were dosed po from day 0 to day 5 with OdDHL. OdDHL was suspended in 0.25% (wt/vol) cellosize (Boots Co. PLC, Nottingham UK) in distilled water containing 1.5% (vol/vol) Tween 80 (Registered Trade Mark, Sigma) for po dosing at 3, 10, 30 and 100 mg/kg. Animals received 0.1 ml po.\nThis manifests itself as an inflammatory response causing an increase in the size of the foot. Very little antibody is produced. OdDHL at 3, 10, 30 and 100 mg/kg caused a dose dependent increase in footweight of 37%, 60%, 100% and 93% respectively (see FIG. 5). Mice dosed with OdDHL had higher footweights when compared to vehicle dosed animals. The 30 and 100 mg/kg doses (** on graph) are significant as determined by Dunnett's multiple comparison's test after one-way analysis of variance (p<0.01). This assay is considered by the pharmaceutical industry to be […] dependent, indicating the effect of compound treatment on contra-regulating T-helper 1 lymphocytes."}, "murine splenocytes": {"test_system": "murine splenocytes", "experiment": "ConA mitogen-stimulated proliferation of murine splenocytes", "assay_type": "cell-based, BALB/c mice", "settings": "ConA 1 μg/ml, 100,000 spleen cells, 1 mM to 0.1 μM", "procedure": "The concanavalin A (ConA) cell proliferation assay was used to assess the effect of homoserine lactone (HSL) compounds on T-cell activation and proliferation. Proliferation was assessed by the incorporation of [^3H]-thymidine into DNA. Eight-week-old female BALB/c mice were obtained from Harlan (Bicester, Oxon, UK) and given food and water ad libitum. Splenocyte suspensions were prepared by removing the spleens and placing them into. RPMI 1640 medium. The spleens were forced through 70-μm-pore-size wire gauzes using the plunger from a 5-ml syringe to produce a single cell suspension. The cells were pelleted by centrifugation, and erythrocytes were lysed with 0.017M Tris, 0.144M ammonium chloride buffer, pH 7.2. Leucocytes were washed twice with RPMI 1640 medium with 2% (vol/vol) foetal calf serum (FCS) and resuspended in complete cell culture medium (CTCM) consisting of RPMI 1640 medium with 5% FCS, 2 mM L-glutamine, and 5×10^−5 M 2-mercaptoethanol. […] After the addition of 25 μl of MicroScint-O (Packard) to each well the filters were counted with the Packard TopCount scintillation counter. […]\n(§1) In the cell culture assays the number of cells used (mouse splenocytes and human PBMC) was initially optimised to 100,000 cells per well. The optimal dose of ConA of 1 μg/ml used in the cell proliferation assays was determined from ConA titration curves. […]"}, "human PBMC": {"test_system": "human PBMC", "experiment": "ConA mitogen-stimulated proliferation of human PBMC", "assay_type": "cell-based", "settings": "ConA 1 μg/ml, 100,000 PBMC", "procedure": "Blood specimens were obtained with consent from healthy human volunteers. Human peripheral blood mononuclear cells (PBMC) were isolated from heparinised whole blood by buoyant density centrifugation over Histopaque 1077 (Sigma, Poole, UK) at 600 g for 20 minutes. PBMC harvested from the ‘buffy’ layers were washed twice with RPMI 1640 medium and resuspended in CTCM. HSL compounds were tested at similar dilutions as for murine splenocytes in 200 μl of CTCM, containing 1 μg/ml of ConA and 100,000 PBMC. Human PBMC were incubated for 48 h at 37° C. in 5% CO2-air, followed by pulsing with 0.25 μCi [^3H]-thymidine (see above). After a further incubation of 24 h cells were harvested onto fibreglass filters and then counted in the presence of MicroScint-O with the Packard TopCount.\nConcanavalin induced cell proliferation of human peripheral blood mononuclear cells (PBMC) was tracked, as described in I above, by a measurement of counts per minute using the scintillation counter. The inhibitory effect of an HSL compound being tested on cell proliferation was indicated by a reduction in counts per minute. […]\nas §1"}, "[2]": {"experiment": "Comparative assay performed in vivo (OdDHL vs CSA and dexamethasone)", "settings": "compared with CSA and dexamethasone", "description": "From this it is believed that a similar result will be achieved for insulitis."}, "murine spleen cells": {"test_system": "murine spleen cells", "settings": "Infection and Immunity, vol.66, no.1, January 1998; cited from earlier work"}, "TNF-α production": {"test_system": "TNF-α production", "settings": "Infection and Immunity, vol.66, no.1, January 1998; cited from earlier work"}}, "note": "Values joined by “and” are separate entries in the source; they are usually repeats but may differ in a detail not shown here. Identical values can stand only once."}
{"smiles": "CCCCCCCCCC(=O)CC(=O)N[C@H]1CCOC1=O", "note": "[OdDHL, N-(3-oxododecanoyl)-L-homoserine Lactone]", "values": [{"measurement": "Slide Score (insulitis), individual animal", "setting": "insulitis in NOD mice; 100 mg/kg intraperitoneally from 4 weeks of age, insulitis assessed at 14 weeks, one value per animal, 100 mg/kg", "result": "1.936 and 1.478 and 1.154 and 1.000 and 1.418"}, {"measurement": "Slide Score (insulitis), Group Total", "setting": "insulitis in NOD mice; 100 mg/kg intraperitoneally, assessed at 14 weeks", "result": 6.986}, {"measurement": "Slide Score (insulitis), Group Mean", "setting": "insulitis in NOD mice; 100 mg/kg intraperitoneally, assessed at 14 weeks, score of 3 or more = severe grade insulitis, 1 = low grade peri-insulitis, 100 mg/kg", "result": 1.397}, {"measurement": "increase in footweight", "setting": "[1]; 3 mg/kg po day 0 to day 5, vs vehicle", "result": 37, "unit": "%"}, {"measurement": "increase in footweight", "setting": "[1]; 10 mg/kg po day 0 to day 5, vs vehicle", "result": 60, "unit": "%"}, {"measurement": "increase in footweight", "setting": "[1]; 30 mg/kg po day 0 to day 5, vs vehicle, p<0.01", "result": 100, "unit": "%"}, {"measurement": "increase in footweight", "setting": "[1]; 100 mg/kg po day 0 to day 5, vs vehicle, p<0.01", "result": 93, "unit": "%"}, {"measurement": "inhibition of splenocyte proliferation ([3H]-thymidine cpm, FIG. 6)", "setting": "murine splenocytes", "result": "inhibits splenocyte proliferation"}, {"measurement": "inhibition of proliferation of human PBMC ([3H]-thymidine cpm, FIG. 7)", "setting": "human PBMC", "result": "inhibited proliferation"}, {"measurement": "comparative performance in vivo", "setting": "[2]", "result": "performed better than CSA and dexamethasone"}, {"measurement": "inhibition of concanavalin A mitogen stimulated proliferation of murine spleen cells", "setting": "murine spleen cells", "result": "inhibiting"}, {"measurement": "inhibition of TNF-α production by LPS-stimulated adherent murine peritoneal macrophages", "setting": "TNF-α production", "result": "inhibiting"}]}
